Data on 40 compounds can be found in patent publication US20130296311A1, “INHIBITORS OF HCV NS5A” (PRESIDIO PHARMACEUTICALS, INC., priority 2010, published 2013).

The test relates to HCV 1b_Huh-Luc/Neo-ET cell line persistently expressing a bicistronic genotype 1b replicon in Huh 7 cells. Put plainly: HCV replicon assay (luciferase readout, 72 h). It counts as cell-based, HCV genotype 1b. As to conditions: Hepatitis C virus. The procedure, abridged:
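EC50 values come from a four-parameter fit of luciferase signal as % of untreated control, repeated across several determinations. The signal is from the HCV 1b_Huh-Luc/Neo-ET replicon line, dosed in triplicate one day post-plating and incubated 72 h before Bright-Glo readout.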

[1] abbreviates: Huh-7, 72 h, read-out: Inhibition of HCV genotype 1b.
The mark [2] stands for this setting: Huh-7, read-out: Inhibition of HCV genotype 1b.

Where two headings read alike, the source gives them in different places.

Consider `COC(=O)N[C@@H](C(=O)N1CCC[C@H]1c1ncc(C#Cc2ccc(-c3ccc(-c4cnc([C@@H]5CCCN5C(=O)[C@H](NC(=O)OC)c5ccccc5)[nH]4)cc3)cc2)[nH]1)c1ccccc1` [Compound 750], for which, under setting [1], the EC50 is less than 1 nM.

For the compound `COC[C@H]1CCCN1C(=O)N[C@@H](C(=O)N1CCC[C@H]1c1ncc(-c2ccc(C#Cc3ccc(-c4cnc([C@@H]5CCCN5C(=O)[C@H](NC(=O)OC)c5ccccc5)[nH]4)cc3)cc2)[nH]1)c1ccccc1` [Compound 259], the EC50 under setting [1] is less than 1 nM.

As to `COC(=O)N[C@@H](C(=O)N1CCC[C@H]1c1ncc(-c2ccc(C#Cc3ccc(-c4cnc([C@@H]5CCCN5C(=O)[C@H](NC(=O)OC)c5ccccc5)[nH]4)cc3C#N)cc2)[nH]1)c1ccccc1` [Compound 1203], under setting [2], the EC50 was less than 1 nM.

As for `O=C(N[C@@H](C(=O)N1CCC[C@H]1C(=O)NCc1ccc(C#Cc2cnc([C@@H]3CCCN3C(=O)[C@H](NC(=O)C3CC3)c3ccccc3)[nH]2)cc1)c1ccccc1)C1CC1` [Compound 121], under setting [1], the EC50 is less than 1 nM.

Consider `CN(C)[C@@H](C(=O)N1CCC[C@H]1c1ncc(C#Cc2ccc(C#Cc3cnc([C@@H]4CCCN4C(=O)[C@@H](c4ccccc4)N(C)C)[nH]3)cc2)[nH]1)c1ccccc1` [Compound 305], for which, under setting [1], the EC50 is less than 1 nM.

Take `CC(=O)N[C@@H](C(=O)N1CCC[C@H]1c1ncc(C#Cc2ccc(C#Cc3cnc([C@@H]4CCCN4C(=O)[C@H](NC(C)=O)c4ccccc4)[nH]3)cc2)[nH]1)c1ccccc1` [Compound 306]: the EC50 under setting [1] was less than 1 nM.

With `COC(=O)N[C@H](C(=O)N1CCC[C@H]1c1nc(C#N)c(C#Cc2ccc3cc(-c4cnc([C@@H]5CCCN5C(=O)[C@@H](NC(=O)OC)[C@@H](C)OC)[nH]4)ccc3c2)[nH]1)C1CCCC1` [Compound 1270], the EC50 under setting [2] is less than 1 nM.

Consider `COC(=O)N[C@H](C(=O)N1C[C@H](F)C[C@H]1c1ncc(-c2ccc(C#Cc3ccc4nc([C@@H]5CCCN5C(=O)[C@@H](NC(=O)OC)C(C)C)[nH]c4c3)cc2)[nH]1)C(C)C` [Compound 1040], for which the EC50 under setting [1] was less than 1 nM.

For the compound `CC(C)(C)OC(=O)N1CCCC1c1ncc(-c2ccc(C#Cc3ccc4nc([C@@H]5CCCN5C(=O)OC(C)(C)C)[nH]c4c3)cc2)[nH]1` (stereo partly shown) [Compound 1034], the EC50 under setting [1] was 1 to 9.9 nM.

Regarding `CC[C@H](C)[C@H](NC(=O)OC)C(=O)N1CCC[C@H]1c1ncc(-c2ccc(C#Cc3ccc4nc([C@@H]5CCCN5C(=O)[C@@H](NC(=O)OC)[C@@H](C)OC)[nH]c4c3)cc2)[nH]1` [Compound 1248], the EC50 under setting [2] was less than 1 nM.

In the case of `COC(=O)N[C@H](C(=O)N1CCC[C@H]1c1nc(-c2cnc3cc(C#Cc4ccc(-c5cnc([C@@H]6CCCN6C(=O)[C@@H](NC(=O)OC)c6ccccc6)[nH]5)cc4)ccc3c2)c[nH]1)c1ccccc1` [Compound 1089], the EC50 under setting [1] was in the range of 10 to 999 nM.

For the compound `COC(=O)N[C@H](C(=O)N1CCN(C(=O)OC)C[C@H]1c1ncc(-c2ccc(C#Cc3ccc(-c4cnc([C@@H]5CCCN5C(=O)[C@@H](NC(=O)OC)C5CCOCC5)[nH]4)cc3)cc2)[nH]1)C(C)C` [Compound 1205], under setting [2], the EC50 was less than 1 nM.

In the case of `CN1CCN(C(=O)N[C@@H](C(=O)N2CCC[C@H]2c2ncc(C#Cc3ccc(-c4cnc([C@@H]5CCCN5C(=O)[C@H](NC(=O)N5CCN(C)CC5)c5ccccc5)[nH]4)cc3)[nH]2)c2ccccc2)CC1` [Compound 118], the EC50 under setting [1] was in the range of 10 to 999 nM.

Consider `CC(=O)N[C@@H](C(=O)N1CCC[C@H]1c1ncc(C#Cc2ccc(-c3cnc([C@@H]4CCCN4C(=O)[C@H](NC(C)=O)c4ccccc4)[nH]3)cc2)[nH]1)c1ccccc1` [Compound 109], for which the EC50 under setting [1] is less than 1 nM.

In the case of `COC(=O)N[C@H](C(=O)N[C@@H](C)c1ncc(-c2ccc(C#Cc3ccc(-c4cnc([C@@H]5CCCN5C(=O)[C@@H](C(C)C)N(C)C)[nH]4)cc3)cc2)[nH]1)C(C)C` [Compound 964], the EC50 under setting [1] is 1 to 9.9 nM.

As for `COC(=O)N1CCC[C@H]1C(=O)N1CCC[C@H]1c1ncc(-c2ccc(C#Cc3ccc4nc([C@@H]5CCCN5C(=O)[C@@H]5CCCN5C(=O)OC)[nH]c4c3)cc2)[nH]1` [Compound 1063], under setting [1], the EC50 was in the range of 10 to 999 nM.

For `COC[C@H](NC(=O)OC)C(=O)N1CCC[C@H]1c1nc2ccc(C#Cc3ccc(-c4cnc([C@@H]5CCCN5C(=O)[C@@H](NC(=O)OC)C(C)C)[nH]4)cc3)cc2[nH]1` [Compound 1243], the EC50 under setting [2] was less than 1 nM.

On to `COC(=O)N[C@@H](C(=O)N1CCC[C@H]1c1ncc(-c2ccc(C#Cc3ccc(C(=O)NC[C@@H]4CCCN4C(=O)[C@H](NC(=O)N4CCN(C)CC4)c4ccccc4)cc3)cc2)[nH]1)c1ccccc1` [Compound 236], for which the EC50 under setting [1] is less than 1 nM.

On to `C[C@@H](NC(=O)OC(C)(C)C)C(=O)N1CCC[C@H]1c1ncc(-c2ccc(C#Cc3ccc(-c4cnc([C@@H]5CCCN5C(=O)[C@@H](C)NC(=O)OC(C)(C)C)[nH]4)cc3)cc2)[nH]1` [Compound 151], for which the EC50 under setting [1] lay within 10 to 999 nM.

As to `CC(C)[C@H](NC(=O)C1CC1)C(=O)N1CCC[C@H]1c1ncc(-c2ccc(C#Cc3ccc(-c4cnc([C@@H]5CCCN5C(=O)[C@@H](NC(=O)C5CC5)C(C)C)[nH]4)cc3)cc2)[nH]1` [Compound 170], the EC50 under setting [1] lay in the range of 1 to 9.9 nM.

In the case of `CN(C)C(=O)N[C@@H](C(=O)N1CCC[C@H]1c1ncc(C#Cc2ccc(C#Cc3cnc([C@@H]4CCCN4C(=O)[C@H](NC(=O)N(C)C)c4ccccc4)[nH]3)cc2)[nH]1)c1ccccc1` [Compound 308], under setting [1], the EC50 is less than 1 nM.

As for `COC(=O)N[C@@H](CC(N)=O)C(=O)N1CCC[C@H]1c1ncc(-c2ccc(C#Cc3ccc4nc([C@@H]5CCCN5C(=O)[C@H](CC(N)=O)NC(=O)OC)[nH]c4c3)cc2)[nH]1` [Compound 1046], under setting [1], the EC50 was in the range of 1 to 9.9 nM.

Regarding `COC(=O)N[C@@H](Cc1cnc[nH]1)C(=O)N1CCC[C@H]1c1ncc(-c2ccc(C#Cc3ccc4nc([C@@H]5CCCN5C(=O)[C@H](Cc5cnc[nH]5)NC(=O)OC)[nH]c4c3)cc2)[nH]1` [Compound 1048], the EC50 under setting [1] is 1 to 9.9 nM.

With `CN(C)[C@@H](C(=O)N1CCC[C@H]1c1ncc(-c2ccc(C#Cc3cnc([C@@H]4CCCN4C(=O)[C@H](NC(=O)C4CC4)c4ccccc4)[nH]3)cc2)[nH]1)c1ccccc1` [Compound 131], the EC50 under setting [1] is less than 1 nM.

Turning to `COC(=O)N[C@H](C(=O)N[C@@H](C)c1ncc(-c2ccc(C#Cc3ccc(-c4cnc([C@@H]5CCCN5C(=O)[C@@H](NC(=O)OC)[C@@H](C)O)[nH]4)cc3)cc2)[nH]1)[C@@H](C)O` [Compound 291], the EC50 under setting [1] was less than 1 nM.

Consider `COC(=O)N[C@@H](C(=O)N1CCC[C@H]1c1ncc(-c2ccc(C#Cc3ccc(-c4cnc([C@@H]5CCCN5C(=O)[C@H](NC(=O)N5CC[C@H](O)C5)c5ccccc5)[nH]4)cc3)cc2)[nH]1)c1ccccc1` [Compound 269], for which the EC50 under setting [1] was less than 1 nM.

For the compound `COC(=O)N[C@H](C(=O)N1CCC[C@H]1c1ncc(-c2ccc(C#Cc3ccc4nc([C@@H]5CCCN5C(=O)[C@@H](NC(=O)OC)C(C)C)[nH]c4c3)nc2)[nH]1)C(C)C` [Compound 1033], the EC50 under setting [1] is less than 1 nM.

Regarding `CC(C)[C@@H](C(=O)N1CCC[C@H]1c1ncc(-c2ccc(C#Cc3ccc4nc([C@@H]5CCCN5C(=O)[C@H](C(C)C)N5CCOC5=O)[nH]c4c3)cc2)[nH]1)N1CCOC1=O` [Compound 1039], under setting [1], the EC50 was 1 to 9.9 nM.

In the case of `CC(C)[C@@H](NC(=O)C1CC1)C(=O)N1CCC[C@H]1C(=O)Nc1ccc(C#Cc2cnc([C@@H]3CCCN3C(=O)[C@H](NC(=O)C3CC3)C(C)C)[nH]2)cc1` [Compound 116], the EC50 under setting [1] was 1 to 9.9 nM.

Take `O=C(N[C@@H](C(=O)N1CCC[C@H]1c1ncc(-c2ccc3nc(C#Cc4ccc5nc([C@@H]6CCCN6C(=O)[C@H](NC(=O)OC6CCOCC6)c6ccccc6)[nH]c5c4)ccc3c2)[nH]1)c1ccccc1)OC1CCOCC1` [Compound 1110]: the EC50 under setting [1] was less than 1 nM.

Turning to `COC(=O)N[C@H](C(=O)N1CC[C@H](O)[C@H]1c1ncc(-c2ccc(C#Cc3ccc4nc([C@@H]5CCCN5C(=O)[C@@H](NC(=O)OC)C(C)C)[nH]c4c3)cc2)[nH]1)C(C)C` [Compound 1068], under setting [1], the EC50 was less than 1 nM.

Consider `COC(=O)N[C@@H](C(=O)N1CCC[C@H]1c1ncc(-c2ccc(C#Cc3ccc(-c4cnc([C@@H]5CCCN5C(=O)C5CCN(C)CC5)[nH]4)cc3)cc2)[nH]1)c1ccccc1` [Compound 182], for which the EC50 under setting [1] was less than 1 nM.

Consider `C[C@@H](NC(=O)C1CC1)C(=O)N1CCC[C@H]1c1ncc(-c2ccc(C#Cc3ccc(-c4cnc([C@@H]5CCCN5C(=O)[C@@H](C)NC(=O)C5CC5)[nH]4)cc3)cc2)[nH]1` [Compound 154], for which, under setting [1], the EC50 was in the range of 1 to 9.9 nM.

On to `COC(=O)N[C@@H](C(=O)N1CCC[C@H]1c1ncc(-c2ccc(C#Cc3ccc(-c4cnc([C@@H]5CCCN5C(=O)[C@H](NC(=O)[C@@H]5CCCN5)c5ccccc5)[nH]4)cc3)cc2)[nH]1)c1ccccc1` [Compound 206], for which the EC50 under setting [1] was less than 1 nM.

Take `COC(=O)N[C@@H](C(=O)N1CCC[C@H]1c1ncc(C#Cc2ccc(-c3cnc([C@@H]4CCCN4C(=O)[C@H](NC(=O)OC)c4ccccc4)[nH]3)cc2)[nH]1)c1ccccc1` [Compound 110]: the EC50 under setting [1] is less than 1 nM.

As for `COC(=O)N[C@H](C(=O)N1CCC[C@H]1c1ncc(C#Cc2ccc3cc(C#Cc4cnc([C@@H]5CCCN5C(=O)[C@@H](NC(=O)OC)C(C)C)[nH]4)ccc3c2)[nH]1)C(C)C` [Compound 1114], the EC50 under setting [1] is less than 1 nM.

In the case of `COC(=O)N[C@H](C(=O)N1CCC[C@H]1c1nc(C#N)c(C#Cc2ccc3cc(-c4cnc([C@@H]5CCCN5C(=O)[C@@H](NC(=O)OC)[C@@H](C)OC)[nH]4)ccc3c2)[nH]1)C(C)C` [Compound 1268], under setting [2], the EC50 was less than 1 nM.

As for `COC(=O)N[C@H](C(=O)N[C@@H](C)c1ncc(-c2ccc(C#Cc3ccc4nc([C@@H]5CCCN5C(=O)[C@@H](NC(=O)OC)C5CCOCC5)[nH]c4c3)cc2)[nH]1)C1CCOCC1` [Compound 1227], under setting [2], the EC50 lay in the range of 1 to 9.9 nM.

Regarding `COC(=O)N[C@@H](C(=O)N[C@@H](C)c1ncc(-c2ccc(C#Cc3ccc(-c4cnc([C@H](C)NC(=O)[C@H](NC(=O)OC)C(C)C)[nH]4)cc3)cc2)[nH]1)C(C)C` [Compound 950], the EC50 under setting [1] is less than 1 nM.

For the compound `O=C(N[C@@H](C(=O)N1CCC[C@H]1c1nc(-c2ccc3cc(C#Cc4cnc([C@@H]5CCCN5C(=O)[C@H](NC(=O)C5CC5)c5ccccc5)[nH]4)ccc3c2)c[nH]1)c1ccccc1)C1CC1` [Compound 804], the EC50 under setting [1] is less than 1 nM.
